Where a name gives a salt, the structure may show the parent alone. Read-outs that look alike come from different tables or passages of the source.
Columns and labels:
NaV1.5 = NaV1.5 (Homo sapiens (Human), UniProt Q14524); test: Sodium Influx Assay (Flux), NaV1.5
NaV1.1 = NaV1.1 (Homo sapiens (Human), UniProt P35498); test: Sodium Influx Assay (Flux), NaV1.1; type: cell-based; settings: Trex HEK293 cells, ANG2 dye, inactivated state;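 also: channels co-expressed with human β1 subunit and held open by modulators, cells exposed to compounds for one hour at room temperature, IC50 from percent inhibition of influx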
NaV1.6 = NaV1.6 (Homo sapiens (Human), UniProt Q9UQD0); test: Sodium Influx Assay (Flux), NaV1.6; type: cell-based; settings: Trex HEK293 cells, ANG2 dye, inactivated state;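 also: Tetracycline-induced cells, compounds applied for one hour at room temperature with modulators holding channels open, IC50 from percent inhibition of sodium influx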
[1] = read-out: Flux NaV1.5 IC50, Trex HEK293 cells, ANG2 dye, inactivated state

Sequence of NaV1.5 (Q14524 other isoform, or with tags, fused parts or gaps): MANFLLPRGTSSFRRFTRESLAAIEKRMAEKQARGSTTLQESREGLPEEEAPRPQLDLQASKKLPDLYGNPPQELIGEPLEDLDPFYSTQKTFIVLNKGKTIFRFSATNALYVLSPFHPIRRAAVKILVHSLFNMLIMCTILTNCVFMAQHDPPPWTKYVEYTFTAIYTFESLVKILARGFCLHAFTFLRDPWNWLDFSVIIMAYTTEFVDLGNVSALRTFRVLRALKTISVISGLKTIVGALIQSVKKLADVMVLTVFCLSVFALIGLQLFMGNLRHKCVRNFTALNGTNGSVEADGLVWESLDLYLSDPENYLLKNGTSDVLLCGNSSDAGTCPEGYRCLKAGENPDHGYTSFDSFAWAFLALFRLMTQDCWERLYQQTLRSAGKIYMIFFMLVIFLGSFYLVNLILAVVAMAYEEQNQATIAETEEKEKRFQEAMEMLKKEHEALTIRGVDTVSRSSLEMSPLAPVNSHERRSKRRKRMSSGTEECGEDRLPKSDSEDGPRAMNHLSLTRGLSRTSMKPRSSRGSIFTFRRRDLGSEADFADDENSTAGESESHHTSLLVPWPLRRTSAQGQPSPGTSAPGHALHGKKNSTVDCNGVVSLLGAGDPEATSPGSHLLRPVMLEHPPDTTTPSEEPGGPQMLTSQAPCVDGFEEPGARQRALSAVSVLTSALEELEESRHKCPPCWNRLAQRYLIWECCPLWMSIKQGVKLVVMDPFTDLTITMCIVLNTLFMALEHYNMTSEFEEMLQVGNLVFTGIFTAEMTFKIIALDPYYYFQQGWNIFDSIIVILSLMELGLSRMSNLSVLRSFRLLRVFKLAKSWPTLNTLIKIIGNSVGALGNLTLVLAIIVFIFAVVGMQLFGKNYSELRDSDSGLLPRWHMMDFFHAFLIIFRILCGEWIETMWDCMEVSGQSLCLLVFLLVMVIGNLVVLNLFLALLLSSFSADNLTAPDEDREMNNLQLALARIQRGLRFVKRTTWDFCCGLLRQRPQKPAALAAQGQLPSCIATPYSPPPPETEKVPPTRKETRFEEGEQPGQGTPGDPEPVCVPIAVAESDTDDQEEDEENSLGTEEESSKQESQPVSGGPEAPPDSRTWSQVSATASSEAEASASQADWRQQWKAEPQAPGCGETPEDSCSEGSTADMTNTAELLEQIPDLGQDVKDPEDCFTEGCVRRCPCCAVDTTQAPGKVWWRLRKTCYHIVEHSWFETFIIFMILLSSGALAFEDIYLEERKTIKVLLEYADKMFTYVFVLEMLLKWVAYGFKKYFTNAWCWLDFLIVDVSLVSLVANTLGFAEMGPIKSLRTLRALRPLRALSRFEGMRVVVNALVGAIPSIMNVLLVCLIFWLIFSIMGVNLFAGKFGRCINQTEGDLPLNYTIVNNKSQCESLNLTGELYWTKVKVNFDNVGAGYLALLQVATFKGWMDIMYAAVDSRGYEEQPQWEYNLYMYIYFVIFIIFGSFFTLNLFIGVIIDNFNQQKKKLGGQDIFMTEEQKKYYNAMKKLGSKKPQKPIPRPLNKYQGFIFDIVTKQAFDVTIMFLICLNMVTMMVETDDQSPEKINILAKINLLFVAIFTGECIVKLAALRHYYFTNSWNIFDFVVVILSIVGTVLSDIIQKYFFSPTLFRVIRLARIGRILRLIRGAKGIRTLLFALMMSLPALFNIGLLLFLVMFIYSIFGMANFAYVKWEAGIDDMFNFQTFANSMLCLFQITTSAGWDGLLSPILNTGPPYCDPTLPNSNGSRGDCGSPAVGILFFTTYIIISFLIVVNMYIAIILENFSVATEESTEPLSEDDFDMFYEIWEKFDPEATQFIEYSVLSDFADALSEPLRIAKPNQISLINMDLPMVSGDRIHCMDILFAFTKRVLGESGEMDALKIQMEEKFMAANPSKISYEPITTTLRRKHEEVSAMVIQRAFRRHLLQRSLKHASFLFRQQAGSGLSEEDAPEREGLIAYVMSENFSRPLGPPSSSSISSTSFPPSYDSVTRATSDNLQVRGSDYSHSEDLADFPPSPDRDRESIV

IC50 (NaV1.1) | IC50 (NaV1.6) | SMILES | IC50 (NaV1.5; [1]) | IC50 (NaV1.5)
15.3 µM | 0.701 µM | CN(C)Cc1ccccc1C1(Nc2cc(F)c(S(=O)(=O)Nc3cscn3)cc2Cl)CC1 [Example 217, 5-chloro-4-((1-(2-((dimethylamino)methyl)phenyl)cyclopropyl)-amino)-2-fluoro-N-(thiazol-4-yl)benzenesulfonamide 2,2,2-trifluoroacetate] | 11.6 µM | 
18.9 µM | 0.647 µM | O=S(=O)(Nc1cccc(F)n1)c1c(F)cc(NCc2ccccc2CN2CCC2)cc1F [Example 324, 4-((2-(azetidin-1-ylmethyl)benzyl)amino)-2,6-difluoro-N-(6-fluoropyridin-2-yl)benzenesulfonamide] | 30 µM | 
21.2 µM | 1.75 µM | C[C@H](Oc1cc(F)c(S(=O)(=O)Nc2cscn2)c(F)c1)c1ccccc1F [Example 232, (S)-2,6-difluoro-4-(1-(2-fluorophenyl)ethoxy)-N-(thiazol-4-yl)benzenesulfonamide] | 11.2 µM | 
20 µM | 2.1 µM | C[C@H](Nc1cc(F)c(S(=O)(=O)Nc2cscn2)cc1Cl)c1cccc(CN(C)C)c1 [Example 253, (S)-5-chloro-4-((1-(3-((dimethylamino)methyl)phenyl)ethyl)amino)-2-fluoro-N-(thiazol-4-yl)benzenesulfonamide formate] | 13.1 µM | 
30 µM | 0.688 µM | O=S(=O)(Nc1ccon1)c1ccc(NCc2c(F)cccc2CN2CCCC2)c(F)c1F [Example 294, 2,3-difluoro-4-((2-fluoro-6-(pyrrolidin-1-ylmethyl)benzyl)amino)-N-(isoxazol-3-yl)benzenesulfonamide 2,2,2-trifluoroacetate] | 30 µM | 
30 µM | 0.035 µM | O=S(=O)(Nc1cscn1)c1c(F)cc(NCc2c(F)cccc2CN2CC3CC3C2)cc1F (stereo not drawn) [Example 174, 4-((2-((3-azabicyclo[3.1.0]hexan-3-yl)methyl)-6-fluorobenzyl)amino)-2,6-difluoro-N-(thiazol-4-yl)benzenesulfonamide] | 30 µM | 
0.142 µM | 0.423 µM | O=S(=O)(Nc1nccs1)c1cc(Cl)c(NC2CCCc3cnccc32)cc1F (stereo not drawn) [Example 94, 5-chloro-2-fluoro-4-((5,6,7,8-tetrahydroisoquinolin-5-yl)amino)-N-(thiazol-2-yl)benzenesulfonamide 2,2,2-trifluoroacetate] | 8.62 µM | 
≥ 30 µM | 0.332 µM | CCC(C)(C)N(C)Cc1cccc(F)c1CNc1cc(F)c(S(=O)(=O)Nc2cscn2)c(F)c1 [Example 184, 2,6-difluoro-4-((2-fluoro-6-((methyl(tert-pentyl)amino)methyl)benzyl)amino)-N-(thiazol-4-yl)benzenesulfonamide formate] |  | ≥ 30 µM
5.89 µM | 0.625 µM | Cc1cccc(CN2CCC2)c1CNc1cc(F)c(S(=O)(=O)Nc2cscn2)c(F)c1 [Example 285, 4-((2-(Azetidin-1-ylmethyl)-6-methylbenzyl)amino)-2,6-difluoro-N-(thiazol-4-yl)benzenesulfonamide formate] | 26.6 µM | 
11 µM | 12.3 µM | CC(Nc1ccc(S(=O)(=O)Nc2nccs2)cc1Cl)c1cnn(C)c1 (stereo not drawn) [Example 83, 3-chloro-4-((1-(1-methyl-1H-pyrazol-4-yl)ethyl)amino)-N-(thiazol-2-yl)benzenesulfonamide] | 30 µM | 
19.9 µM | 8.19 µM | Cc1cccc(Cl)c1CNc1cc(F)c(S(=O)(=O)Nc2cscn2)cc1Cl [Example 226, 5-chloro-4-((2-chloro-6-methylbenzyl)amino)-2-fluoro-N-(thiazol-4-yl)benzenesulfonamide] | 11.3 µM | 
5.75 µM | 0.68 µM | O=S(=O)(Nc1cscn1)c1c(F)cc(NCc2c(F)cccc2CN2CC(O)(C(F)(F)F)C2)cc1F [Example 176, 2,6-difluoro-4-((2-fluoro-6-((3-hydroxy-3-(trifluoromethyl)azetidin-1-yl)methyl)benzyl)amino)-N-(thiazol-4-yl)benzenesulfonamide formate] | 16.9 µM | 
30 µM | 0.036 µM | CCN(CC)Cc1cccc(F)c1CNc1cc(F)c(S(=O)(=O)Nc2cscn2)c(F)c1 [Example 183, 4-((2-((diethylamino)methyl)-6-fluorobenzyl)amino)-2,6-difluoro-N-(thiazol-4-yl)benzenesulfonamide formate] | 28 µM | 
1.57 µM | 3.34 µM | CCC(Nc1cc(F)c(S(=O)(=O)Nc2nccs2)cc1Cl)c1ccncc1 (stereo not drawn) [Example 60, 5-chloro-2-fluoro-4-((1-(pyridin-4-yl)propyl)amino)-N-(thiazol-2-yl)benzenesulfonamide] | 30 µM | 
26.6 µM | 0.225 µM | CN(Cc1cccc(F)c1CNc1ccc(S(=O)(=O)Nc2cscn2)c(F)c1F)C(C)(C)C [Example 203, 4-((2-((tert-butyl(methyl)amino)methyl)-6-fluorobenzyl)amino)-2,3-difluoro-N-(thiazol-4-yl)benzenesulfonamide 2,2,2-trifluoroacetate] | 28.3 µM | 
24.7 µM | 0.176 µM | CC1(C)CN(Cc2cccc(F)c2CNc2cc(F)c(S(=O)(=O)Nc3cscn3)c(F)c2)C1 [Example 170, 4-((2-((3,3-dimethylazetidin-1-yl)methyl)-6-fluorobenzyl)amino)-2,6-difluoro-N-(thiazol-4-yl)benzenesulfonamide] |  | 15.2 µM
3.36 µM | 0.78 µM | C[C@H](Nc1ccc(S(=O)(=O)Nc2cscn2)c(F)c1Cl)c1c(F)cccc1F [Example 149, (S)-3-chloro-4-((1-(2,6-difluorophenyl)ethyl)amino)-2-fluoro-N-(thiazol-4-yl)benzenesulfonamide] | 6.39 µM | 
1.34 µM | 1.4 µM | O=S(=O)(Nc1ncns1)c1ccc(N[C@H]2CCc3ccccc32)c(Cl)c1 [Example 36, (S)-3-chloro-4-((2,3-dihydro-1H-inden-1-yl)amino)-N-(1,2,4-thiadiazol-5-yl)benzenesulfonamide] | 5.12 µM | 
3.58 µM | 0.959 µM | C[C@H](Nc1cc(F)c(S(=O)(=O)Nc2ncc(Cl)s2)cc1Cl)c1ccccc1F [Example 267, (S)-5-chloro-2-fluoro-4-((1-(2-fluorophenyl)ethyl)amino)-N-(5-chlorothiazol-2-yl)benzenesulfonamide] | 6.96 µM | 
9.41 µM | 7.15 µM | C[C@H](Nc1cc(F)c(S(=O)(=O)Nc2nccs2)cc1Cl)c1ccc2ccccc2c1 [Example 15, (S)-5-chloro-2-fluoro-4-((1-(naphthalen-2-yl)ethyl)amino)-N-(thiazol-2-yl)benzenesulfonamide] | 23.6 µM | 
0.784 µM | 0.12 µM | CC[C@H](Nc1cc(F)c(S(=O)(=O)Nc2nccs2)cc1Br)c1ccccc1 [Example 1, (S)-5-bromo-2-fluoro-4-((1-phenylpropyl)amino)-N-(thiazol-2-yl)benzenesulfonamide] | 8.92 µM | 
30 µM | 0.461 µM | COCCN(C)Cc1cccc(F)c1CNc1cc(F)c(S(=O)(=O)Nc2cscn2)c(F)c1 [Example 162, 2,6-difluoro-4-((2-fluoro-6-(((2-methoxyethyl)(methyl)amino)methyl)benzyl)amino)-N-(thiazol-4-yl)benzenesulfonamide formate] | 11 µM | 
26.4 µM | 0.219 µM | O=S(=O)(Nc1ccncn1)c1c(F)cc(NCc2ccccc2CN2CCC2)cc1F [Example 311, 4-((2-(azetidin-1-ylmethyl)benzyl)amino)-2,6-difluoro-N-(pyrimidin-4-yl)benzenesulfonamide formate] | 30 µM | 
30 µM | 1.88 µM | O=S(=O)(Nc1cccnn1)c1cc(Cl)c(NCc2c(F)cccc2CN2CCC2)cc1F [Example 260, 4-((2-(azetidin-1-ylmethyl)-6-fluorobenzyl)amino)-5-chloro-2-fluoro-N-(pyridazin-3-yl)benzenesulfonamide] | 30 µM | 
12 µM | 0.023 µM | O=S(=O)(Nc1cscn1)c1c(F)cc(NCc2cccc(F)c2CN2CCC2)c(Cl)c1F [Example 197, 4-((2-(azetidin-1-ylmethyl)-3-fluorobenzyl)amino)-3-chloro-2,6-difluoro-N-(thiazol-4-yl)benzenesulfonamide 2,2,2-trifluoroacetate] | 27.6 µM | 
6.34 µM | 0.085 µM | O=S(=O)(Nc1cscn1)c1c(F)cc(NCc2c(Cl)ccc(F)c2CN2CCC2)cc1F [Example 309, 4-((2-(azetidin-1-ylmethyl)-6-chloro-3-fluorobenzyl)amino)-2,6-difluoro-N-(thiazol-4-yl)benzenesulfonamide 2,2,2-trifluoroacetate] | 27.6 µM | 
0.303 µM | 0.299 µM | O=S(=O)(Nc1nccs1)c1cc(Cl)c(NC2CCCc3ncccc32)cc1F (stereo not drawn) [Example 98, 5-chloro-2-fluoro-4-((5,6,7,8-tetrahydroquinolin-5-yl)amino)-N-(thiazol-2-yl)benzenesulfonamide formate] | 11 µM | 
28.7 µM | 2.16 µM | C[C@H](Nc1ccc(S(=O)(=O)Nc2nccs2)cc1Cl)c1ccccn1 [Example 82, (S)-3-chloro-4-((1-(pyridin-2-yl)ethyl)amino)-N-(thiazol-2-yl)benzenesulfonamide] | 30 µM | 
30 µM | 2.82 µM | O=S(=O)(Nc1cscn1)c1cc(Cl)c(OCc2c(F)ccc(F)c2CN2CCC2)cc1F [Example 150, 4-((2-(azetidin-1-ylmethyl)-3,6-difluorobenzyl)oxy)-5-chloro-2-fluoro-N-(thiazol-4-yl)benzenesulfonamide] | 8.66 µM | 
